Measured values as given in PMC12388523, “Flavonoids and Sesquiterpene Lactones from Lychnophora ericoides (Arnica-Do-Cerrado) and Their In Vitro Effects on Multiple Myeloma and Acute Myeloid Leukemia” (Metabolites, 2025).

Columns and labels:
Assay type in all cases: cell-based
KMS-12-PE cells [1] = test: Metabolic activity, resazurin staining, KMS-12-PE; conditions: KMS-12 PE; for Metabolic activity, mean percentage ± SE: 72 h, relative to control
Method: (§1) Acute myeloid leukemia cell line HL-60 and multiple myeloma cell lines AMO-1 and KMS-12-PE were obtained from the German Collection of Microorganisms and Cell Cultures (DSMZ), Braunschweig, Germany, and non-tumorigenic stromal cell line HS-5 was acquired from the American Type Culture Collection (ATCC, Manassas, VA, USA). All cell lines were cultured in RPMI 1640 medium without phenol red (Pan Biotech, Aidenbach, Germany), supplemented with 2 mM glutamine, 100 U/mL penicillin, 100 µg/mL streptomycin (Sigma-Aldrich, St. Louis, MO, USA), and 10% fetal bovine serum (FBS Maximus, Catus Biotech GmbH, Tutzing, Germany) at 37 °C in a humidified atmosphere of 5% CO2/95% air. Cells were fed twice weekly. Logarithmically growing cells were resuspended at 1 × 10^5 cells/mL, plated in triplicate in round-bottom 96-well plates (100 µL per well; Falcon, Becton Dickinson, Franklin Lakes, NJ, USA), and incubated at 37 °C in 5% CO2/95% air for 2 h. Subsequently, the compounds were adjusted in the cell culture medium to reach the final concentrations in a total volume of 150 µL and incubated for an additional 72 h. Cell proliferation was assessed by [^3H]-thymidine uptake. Each well was exposed to 2 µCi [^3H]-thymidine (Hartmann Analytic, Braunschweig, Germany) during the final 12–16 h of incubation. Cells were harvested using a semi-automated device, and [^3H]-thymidine incorporation (expressed in counts per minute, cpm) was measured with a scintillation counter (MicroBeta TriLux, PerkinElmer, Waltham, MA, USA). Metabolic activity was assessed by resazurin staining. Resazurin (Carl Roth, Karlsruhe, Germany) was dissolved in distilled water at a concentration of 0.1 mg/mL, and 15 µL of this solution was added to each well, followed by a 2 h incubation at 37 °C. Relative fluorescence units (RFUs) were measured using a Synergy H1 plate reader equipped with a 560 nm excitation/590 nm emission filter set (BioTek; Agilent, Santa Clara, CA, USA). Proliferation and metabolic activity in the absence of compounds were defined as 100% (control), and the values for compound-treated samples were expressed as percentages relative to the control. Selectivity indices were calculated by dividing the IC50 value of each compound against HS-5 cells through the IC50 values against the investigated cell lines.
(§2) The Wilcoxon Rank Sum Test was used to analyze proliferation and metabolic activity in the absence and presence of varying compound concentrations (NCSS 2007 software, version 07.1.2, Kaysville, UT, USA). A p-value < 0.05 was considered statistically significant. IC50 values were calculated using GraphPad Prism 10.1.2. This software reports 95% confidence intervals instead of standard errors. […] Nonetheless, the figures clearly illustrate the IC50 values due to the narrow concentration range tested.
(§3) Proliferation inhibition often leads to cell death. Therefore, the cytotoxic activity of the compounds was further evaluated using a modified 3-(4,5-dimethylthiazol-2-yl)-2,5-diphenyltetrazolium bromide (MTT) assay, the resazurin (Alamar Blue) assay. Metabolically active cells reduce the non-fluorescent dye resazurin to the fluorescent dye resorufin via mitochondrial reductase activity, which correlates with cell viability. In the first step the metabolic activity of the four isolated flavonoids was investigated, showing a dose-dependent reduction, but to a much lower extent than in the proliferation assays (Table A2). In fact, only 7,3′,4′-trimethoxymyricetin (2) inhibited the metabolic activity of all four cell lines by more than 50% at a concentration of 100 µM.

HL-60 cells [2] = test: Metabolic activity, resazurin staining, HL-60; conditions: for Metabolic activity, mean percentage ± SE: 72 h, relative to control
Method: as §1, §2, §3

KMS-12-PE cells [3] = test: Proliferation, [3H]-thymidine uptake, KMS-12-PE; conditions: KMS-12 PE, 72 h, relative to control
Method: as §1, §2

AMO-1 cells [4] = test: Proliferation, [3H]-thymidine uptake, AMO-1; conditions: 72 h, relative to control
Method: as §1, §2

MOLM-13 cells [5] = test: Metabolic activity, resazurin staining, MOLM-13; conditions: for Metabolic activity, mean percentage ± SE: 72 h, relative to control
Method: [The source words this procedure for another cell line and reports this cell line under the same test.] as §1, §2, §3

HL-60 cells [6] = test: Proliferation, [3H]-thymidine uptake, HL-60; conditions: for mean percentage of proliferation ± SE: 72 h, relative to control
Method: as §1, §2

AMO-1 cells [7] = test: Metabolic activity, resazurin staining, AMO-1; conditions: for Metabolic activity, mean percentage ± SE: 72 h, relative to control
Method: as §1, §2, §3

MOLM-13 cells [8] = test: Proliferation, [3H]-thymidine uptake, MOLM-13; conditions: for mean percentage of proliferation ± SE: 72 h, relative to control
Method: [The source words this procedure for another cell line and reports this cell line under the same test.] as §1, §2

Row | Compound | Metabolic activity, mean percentage ± SE (KMS-12-PE cells [1]; 50 µM) | Metabolic activity, mean percentage ± SE (KMS-12-PE cells [1]; 100 µM) | Metabolic activity, mean percentage ± SE (HL-60 cells [2]; HL-60, 50 µM) | Metabolic activity, mean percentage ± SE (HL-60 cells [2]; HL-60, 100 µM) | mean percentage of proliferation ± SE (KMS-12-PE cells [3]; 50 µM) | mean percentage of proliferation ± SE (KMS-12-PE cells [3]; 100 µM) | mean percentage of proliferation ± SE (AMO-1 cells [4]; AMO-1, 50 µM) | mean percentage of proliferation ± SE (AMO-1 cells [4]; AMO-1, 100 µM) | Metabolic activity, mean percentage ± SE (MOLM-13 cells [5]; MOLM-13, 50 µM) | Metabolic activity, mean percentage ± SE (MOLM-13 cells [5]; MOLM-13, 100 µM) | mean percentage of proliferation ± SE (HL-60 cells [6]; HL-60, 50 µM) | mean percentage of proliferation ± SE (HL-60 cells [6]; HL-60, 100 µM) | Metabolic activity, mean percentage ± SE (AMO-1 cells [7]; AMO-1, 50 µM) | Metabolic activity, mean percentage ± SE (AMO-1 cells [7]; AMO-1, 100 µM) | mean percentage of proliferation ± SE (MOLM-13 cells [8]; MOLM-13, 50 µM) | mean percentage of proliferation ± SE (MOLM-13 cells [8]; MOLM-13, 100 µM) | Metabolic activity, mean percentage ± SE (KMS-12-PE cells [1]; 25 µM) | Metabolic activity, mean percentage ± SE (HL-60 cells [2]; HL-60, 25 µM) | mean percentage of proliferation ± SE (KMS-12-PE cells [3]; 25 µM) | mean percentage of proliferation ± SE (AMO-1 cells [4]; AMO-1, 25 µM) | other results
1 | COc1cc(O)c2c(=O)c(OC)c(-c3ccc(OC)c(OC)c3)oc2c1 [Compound 1, retusin] | 100.9 ± 4.1% | 95.1 ± 4.5% | 93.0 ± 4.4% | 85.9 ± 1.8% | 85.2 ± 1.8 % | 73.0 ± 1.9 % | 73.5 ± 7.5 % | 66.9 ± 7.8 % | 88.5 ± 3.8 % | 80.5 ± 2.6 % | 76.0 ± 3.0 % | 65.6 ± 3.1 % | 91.4 ± 8.9 % | 81.0 ± 4.2 % | 76.9 ± 4.7 % | 57.8 ± 6.8 % | – | – | – | – | –
2 | COc1cc(O)c2c(=O)c(O)c(-c3cc(O)c(OC)c(OC)c3)oc2c1 [Compound 2, 7,3′,4′-trimetoxymyricetin] | 62.7 ± 2.6 % | 44.5 ± 4.0 % | 79.6 ± 7.0 % | 32.1 ± 2.8 % | 16.1 ± 0.9 % | 2.6 ± 0.4 % | 27.0 ± 4.0 % | 4.8 ± 1.0 % | 65.4 ± 3.6 % | 48.9 ± 5.5 % | 36.7 ± 2.5 % | 2.5 ± 0.5 % | 68.9 ± 4.1 % | 41.8 ± 6.4 % | 35.4 ± 4.2 % | 3.8 ± 1.0 % | 87.9 ± 2.6 % | 93.2 ± 7.8% | 64.5 ± 2.9 % | 69.2 ± 5.3 % | inhibition at 100 µM (KMS-12-PE cells [1]; Homo sapiens, 100 µM): > 50%; inhibition at 100 µM (HL-60 cells [2]; Homo sapiens, HL-60, 100 µM): > 50%; inhibition at 100 µM (MOLM-13 cells [5]; Homo sapiens, MOLM-13, 100 µM): > 50%; Metabolic activity, mean percentage ± SE (MOLM-13 cells [5]; MOLM-13, 25 µM): 77.8 ± 2.1 %; mean percentage of proliferation ± SE (HL-60 cells [6]; HL-60, 25 µM): 69.8 ± 2.5 %; Metabolic activity, mean percentage ± SE (AMO-1 cells [7]; AMO-1, 25 µM): 81.3 ± 6.3 %; inhibition at 100 µM (AMO-1 cells [7]; Homo sapiens, AMO1, AMO-1, 100 µM): > 50%; mean percentage of proliferation ± SE (MOLM-13 cells [8]; MOLM-13, 25 µM): 77.8 ± 9.6%
3 | COc1ccc(-c2cc(=O)c3c(O)cc(O)cc3o2)cc1O [Compound 3, diosmetin] | 81.3 ± 3.2 % | 57.2 ± 4.7 % | 84.5 ± 2.2 % | 56.7 ± 3.5 % | 38.2 ± 4.1 % | 16.4 ± 2.4 % | 42.0 ± 5.0 % | 9.0 ± 0.8 % | 51.2 ± 7.2 % | 41.2 ± 5.0 % | 59.9 ± 3.6 % | 19.7 ± 3.7 % | 76.8 ± 3.7 % | 54.5 ± 5.5 % | 11.7 ± 1.6 % | 1.1 ± 0.4 % | 93.7 ± 4.9% | 93.2 ± 3.1 % | 74.5 ± 6.9 % | 65.9 ± 9.4 % | Metabolic activity, mean percentage ± SE (MOLM-13 cells [5]; MOLM-13, 25 µM): 62.5 ± 10.1 %; inhibition of metabolic activity (MOLM-13 cells [5]; MOLM-13, 100 µM): induced antimetabolic activity; mean percentage of proliferation ± SE (HL-60 cells [6]; HL-60, 25 µM): 71.4 ± 1.5 %; Metabolic activity, mean percentage ± SE (AMO-1 cells [7]; AMO-1, 25 µM): 95.4 ± 2.4 %; mean percentage of proliferation ± SE (MOLM-13 cells [8]; MOLM-13, 25 µM): 36.5 ± 2.9 %
4 | COc1cc(O)c2c(=O)c(OC)c(-c3ccc(O)c(O)c3)oc2c1 [Compound 4, 3,7-di-O-methylquercetin] | 92.4 ± 8.7% | 82.4 ± 7.7% | 69.8 ± 5.1 % | 69.7 ± 5.5 % | 50.4 ± 5.2 % | 29.7 ± 6.0 % | 29.7 ± 4.1 % | 19.2 ± 5.1 % | 63.6 ± 6.4 % | 61.7 ± 6.9 % | 23.3 ± 6.5 % | 18.5 ± 4.0 % | 57.1 ± 10.5 % | 46.9 ± 11.7 % | 13.1 ± 2.7 % | 8.8 ± 3.1 % | 103.0 ± 9.9% | 80.8 ± 5.9 % | 80.9 ± 3.2 % | 57.5 ± 9.2 % | Metabolic activity, mean percentage ± SE (KMS-12-PE cells [1]; 10 µM): 110.1 ± 10.2%; Metabolic activity, mean percentage ± SE (HL-60 cells [2]; HL-60, 10 µM): 86.1 ± 6.1 %; mean percentage of proliferation ± SE (KMS-12-PE cells [3]; 10 µM): 89.0 ± 5.2%; mean percentage of proliferation ± SE (AMO-1 cells [4]; AMO-1, 10 µM): 73.3 ± 11.4 %; Metabolic activity, mean percentage ± SE (MOLM-13 cells [5]; MOLM-13, 10 µM): 81.1 ± 4.2 %; Metabolic activity, mean percentage ± SE (MOLM-13 cells [5]; MOLM-13, 25 µM): 77.9 ± 4.3 %; mean percentage of proliferation ± SE (HL-60 cells [6]; HL-60, 10 µM): 45.9 ± 8.9 %; mean percentage of proliferation ± SE (HL-60 cells [6]; HL-60, 25 µM): 37.6 ± 7.7 %; inhibition at 10 µM (HL-60 cells [6]; Homo sapiens, HL-60, 10 µM): > 50%; Metabolic activity, mean percentage ± SE (AMO-1 cells [7]; AMO-1, 10 µM): 91.5 ± 9.9%; Metabolic activity, mean percentage ± SE (AMO-1 cells [7]; AMO-1, 25 µM): 70.2 ± 10.8 %; inhibition of metabolic activity (AMO-1 cells [7]; AMO-1, 100 µM): induced antimetabolic activity; inhibition at 10 µM (MOLM-13 cells [8]; Homo sapiens, MOLM-13, 10 µM): > 50%; mean percentage of proliferation ± SE (MOLM-13 cells [8]; MOLM-13, 10 µM): 42.3 ± 11.2 %; mean percentage of proliferation ± SE (MOLM-13 cells [8]; MOLM-13, 25 µM): 32.6 ± 5.5 %
